# Source: patent US5688992A, “O-malonyltryrosyl compounds, O-malonyltryrosyl compound-containing peptides, and use thereof” (The United States of America as represented by the …, priority 1995, dated 1997)
# Like-named read-outs stand apart in the source and are kept apart here. Square brackets hold non-standard residues; d marks the D form. Peptide text beside a SMILES is read from it. * marks the point of attachment. F2Pmp = N[C@@H](Cc1ccc(C(F)(F)P(=O)(O)O)cc1)C(=O)O; pY = N[C@@H](Cc1ccc(OP(=O)(O)O)cc1)C(=O)O; L‑OMT = L-O-malonyltyrosine; X1 = O=C(O)C(C(=O)O)*
# Experiments:
# Src SH2 domain = target: T1, Src SH2 domain (Homo sapiens, UniProt P12931); test: SH2 domain competition binding assay, Src SH2; details: X = L-OMT; GST/SH2 fusion vs [125I] hmT pY324 phosphopeptide; read-out: IC50 ± S.E., Src SH2 domain
# T1 construct: the Src SH2 domain was paired with hmt pY324
# Experimental: (§1) Details of the […] domain competition assay are described by Piccione, E., et al., Biochemistry 32:3197-3202 (1993). Briefly, four distinct assays were used to determine relative SH2 domain affinities for pTyr analogues vs. high affinity phosphopeptide ligands. In each assay a glutathione S-transferase (GST)/SH2 domain fusion protein was paired with an appropriate high-affinity [^125 I]Bolton-Hunter radiolabeled phosphopeptide, and varying concentrations of unlabeled peptides were added as competitors. The C-terminal SH2 domain of PI 3-kinase p85 was paired with IRS-1pY628, GNGDpYMPMSPK (SEQ ID NO. 5) (See Piccione, E., et al., Biochemistry 32:3197-3202 (1993)), the Src SH2 domain was paired with hmt pY324, KEPQpYEEIPIYL (SEQ ID NO. 6) (See Payne, G., et al., Proc. Natl. Acad. Sci. USA 90:4902-4906 (1993), the PLCγ-C SH2 domain was paired with PDGF pY1021, DNDpYIIPLPDPK (SEQ ID NO. 7) (See Piccione, E., et al., Biochemistry 32:3197-3202 (1993)), and the Lck SH2 domain was paired with the hmTpY324 sequence similar to assays conducted on the Src SH2 domain. An underline denotes the position of the [^125 I]Bolton-Hunter modified lysine. […] Following centrifugation for 5 min at 12,000 g, supematant solutions were removed by aspiration and [^125 I]radioactivity associated with the unwashed pellets was determined with a γ-counter.
# Grb2 SH2 domain = target: T2, Grb2 SH2 domain (Homo sapiens, UniProt P62993); test: SH2 domain competition binding assay, Grb2 SH2
# T2 construct: against the Grb2 SH2 domain construct
# [1] = target: C-terminal SH2 domain of PI 3-kinase p85 (Homo sapiens, UniProt P27986); test: SH2 domain competition binding assay, PI 3-kinase p85 C-terminal SH2; details: X = L-OMT; GST/SH2 fusion vs [125I] IRS-1 pY628 phosphopeptide; read-out: IC50 ± S.E., p85 (C-terminal) SH2 domain
# Experimental: as §1
# [2] = target: T3, N-terminal SH-PTP2 SH2 domain (Homo sapiens, UniProt Q06124); details: X = pTyr or L-F2Pmp; previously reported (Xiao 1994); cited from earlier work
# T3 sequence (Q06124 6-102 limits assumed): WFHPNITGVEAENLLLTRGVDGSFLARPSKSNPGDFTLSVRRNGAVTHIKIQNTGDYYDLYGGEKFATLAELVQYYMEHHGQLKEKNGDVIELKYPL
# [3] = test system: SH-PTP2 mediated mitogenic signaling in rat 1 fibroblasts; details: Xiao 1994; cited from earlier work
# recombinant PTP 1B = target: T4, recombinant PTP 1B (Homo sapiens, UniProt P18031); test: Insulin receptor dephosphorylation by recombinant PTP 1B; type: biochemical; details: 32P-labeled autophosphorylated insulin receptor as substrate; read-out: inhibition constant / IC50 against PTP 1B dephosphorylation of insulin receptor
# T4 sequence (P18031 1-435): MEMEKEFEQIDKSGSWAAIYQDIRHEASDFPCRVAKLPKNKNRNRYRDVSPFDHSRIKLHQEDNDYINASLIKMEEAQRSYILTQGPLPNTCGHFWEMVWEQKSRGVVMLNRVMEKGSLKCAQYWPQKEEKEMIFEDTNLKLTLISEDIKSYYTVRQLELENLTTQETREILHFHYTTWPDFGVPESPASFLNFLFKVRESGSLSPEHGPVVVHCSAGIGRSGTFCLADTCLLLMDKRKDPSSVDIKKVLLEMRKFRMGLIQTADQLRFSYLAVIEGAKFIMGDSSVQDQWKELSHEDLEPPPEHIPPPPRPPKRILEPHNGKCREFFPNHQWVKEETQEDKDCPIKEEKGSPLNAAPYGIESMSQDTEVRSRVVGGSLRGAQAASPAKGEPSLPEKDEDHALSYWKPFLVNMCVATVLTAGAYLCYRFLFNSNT
# Experimental: WGA-purified human insulin receptors were autophosphorylated with [γ-^32 P]ATP as previously described (Liotta, A.S., et al., J. Biol. Chem. 269:22996-23001 (1994)), and this ^32 P-labeled insulin receptor was used as substrate for the assay of PTP 1B activity, essentially following the method described by Burke et al. (Burke, T. R. Jr., Biochem, Biophys. Res. Commun. 204:129-134 (1994)). In brief, ^32 P-labeled autophosphorylated insulin receptors (10 μg/ml) were incubated with 0.5 μg/ml recombinant PTP 1B at 22° C. in a 100 μl reaction containing 50 mM HEPES, pH 7.5, 0.1 mg/ml BSA, 5 mM DTT, 5 mM EDTA, 0.05% Triton X-100, in the absence or presence of various peptides at the indicated concentrations. […] The ^32 P remaining in the 95 kDa insulin receptor β-subunit was quantified by Betagen counting of the fixed and dried gels.
# The peptide Ac-D-A-D-E-OMT-L-amide (SEQ. ID. NO. 8) was then examined for inhibitor potency against PTB-1B dephosphorylation of phosphorylated insulin receptor. […] The ^32 P remaining in the 95 kDa insulin receptor β-subunit was quantified by Betagen counting of the fixed and dried gels. […]
# [4] = target: T3, N-terminal SH-PTP2 SH2 domain; test: SH2 domain competition binding assay, SH-PTP2 N-terminal SH2; details: X = L-OMT; read-out: IC50 ± S.E., SH-PTP2 (N-terminal) SH2 domain
compound,measurement,setting,value
"CC[C@H](C)[C@H](NC(=O)[C@H](CCC(=O)O)NC(=O)[C@H](CCC(=O)O)NC(=O)[C@H](Cc1ccc(OC(C(=O)O)C(=O)O)cc1)NC(=O)[C@H](CCC(N)=O)NC(C)=O)C(=O)N1CCC[C@H]1C(N)=O [peptide no. 7, Ac-Gln-[L-OMT]-Glu-Glu-Ile-Pro-amide] (Ac-QY(X1)EEIP-NH2)",IC50,Src SH2 domain,> 200 µM
"CC[C@H](C)[C@H](NC(=O)[C@H](CC(N)=O)NC(=O)[C@@H](NC(=O)[C@H](Cc1ccc(OC(C(=O)O)C(=O)O)cc1)NC(=O)[C@H](CC(N)=O)NC(C)=O)C(C)C)C(=O)N[C@@H](CCC(=O)O)C(N)=O [peptide no. 8, Ac-Asn-[L-OMT]-Val-Asn-Ile-Glu-amide] (Ac-NY(X1)VNIE-NH2)",activity in Grb2 binding assay,Grb2 SH2 domain,essentially inactive
"CSCC[C@H](NC(=O)[C@@H]1CCCN1C(=O)[C@@H](NC(=O)[C@H](Cc1ccc(OC(C(=O)O)C(=O)O)cc1)NC(=O)[C@H](CC(=O)O)NC(C)=O)C(C)C)C(=O)N[C@@H](CC(C)C)C(N)=O [peptide no. 6, Ac-Asp-[L-OMT]-Val-Pro-Met-Leu-amide] (Ac-DY(X1)VPML-NH2)",IC50,[1],14.2 µM
10 (X = pTyr): Ac-L-N-X-I-D-L-D-L-V-amide with X = pTyr in place of L-OMT (Ac-LN[pY]IDLDLV-NH2; SMILES CC[C@H](C)[C@H](NC(=O)[C@H](Cc1ccc(OP(=O)(O)O)cc1)NC(=O)[C@H](CC(N)=O)NC(=O)[C@H](CC(C)C)NC(C)=O)C(=O)N[C@@H](CC(=O)O)C(=O)N[C@@H](CC(C)C)C(=O)N[C@@H](CC(=O)O)C(=O)N[C@@H](CC(C)C)C(=O)N[C@H](C(N)=O)C(C)C),IC50,[2],4 µM
10 (X = L-F2Pmp): Ac-L-N-X-I-D-L-D-L-V-amide with X = L-F2Pmp in place of L-OMT (Ac-LN[F2Pmp]IDLDLV-NH2; SMILES CC[C@H](C)[C@H](NC(=O)[C@H](Cc1ccc(C(F)(F)P(=O)(O)O)cc1)NC(=O)[C@H](CC(N)=O)NC(=O)[C@H](CC(C)C)NC(C)=O)C(=O)N[C@@H](CC(=O)O)C(=O)N[C@@H](CC(C)C)C(=O)N[C@@H](CC(=O)O)C(=O)N[C@@H](CC(C)C)C(=O)N[C@H](C(N)=O)C(C)C),IC50,[2],23 µM
same,effect on SH-PTP2 mediated mitogenic signaling,[3],block SH-PTP2 mediated mitogenic signaling
"CC(=O)N[C@@H](CC(=O)O)C(=O)N[C@@H](C)C(=O)N[C@@H](CC(=O)O)C(=O)N[C@@H](CCC(=O)O)C(=O)N[C@@H](Cc1ccc(OC(C(=O)O)C(=O)O)cc1)C(=O)N[C@@H](CC(C)C)C(N)=O [Ac-D-A-D-E-OMT-L-amide, Ac-Asp-Ala-Asp-Glu-[L-OMT]-Leu-amide] (Ac-DADEY(X1)L-NH2)",IC50,recombinant PTP 1B,~10 µM
Ac-Leu-Asn-[L-OMT]-Ile-Asp-Leu-Asp-Leu-Val-amide ({Ac-Leu-Asn-L‑OMT}-IDLDLV-NH2) [peptide no. 9],IC50,[4],22 µM
